Measurements as given in ChEMBL document CHEMBL4616720 (J Med Chem, 2020).

What was measured:
A549 [1] = test: Induction of apoptosis in human A549 cells assessed as early apoptotic cells at 40 uM measured after 48 hrs by Annexin V-FITC/propidium iodide staining based FACSClibur flow cytometry analysis (reference value: 0.40 %); format: functional
[2] = Toxicity in KM mouse assessed as clinical changes at <262 mg/kg, ip administered as single dose measured for 14 days; format: organism-based; conditions: in vivo, 336 h
[3] = molecular target: T1, Peptide deformylase, mitochondrial (Homo sapiens, UniProt Q9HBH1); test: Inhibition of human PDF expressed in Escherichia coli BL21 pLysS using formyl-Met-Ala-His-Ala peptide as substrate measured after 1 hr by fluorescamine-based fluorescence assay
T1 sequence (Q9HBH1 whole entry): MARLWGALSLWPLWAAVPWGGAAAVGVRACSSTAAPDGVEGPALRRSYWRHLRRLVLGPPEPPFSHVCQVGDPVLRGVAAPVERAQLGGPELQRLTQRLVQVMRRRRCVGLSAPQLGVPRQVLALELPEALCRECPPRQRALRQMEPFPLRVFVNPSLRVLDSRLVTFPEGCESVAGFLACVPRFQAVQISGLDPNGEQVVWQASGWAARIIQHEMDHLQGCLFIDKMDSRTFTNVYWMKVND

[4] = molecular target: T2, Peptide deformylase, mitochondrial (Homo sapiens) (UniProt Q9HBH1); test: Inhibition of PDF in human A549 cells assessed as decrease in mtDNA encoded COX1 protein level measured after 48 hrs by Western blot analysis; format: cell-based
T2 sequence (whole entry): T1 sequence (Q9HBH1 whole entry)

HCT-116 = test: Antiproliferative activity against human HCT116 cells assessed as reduction in cell growth measured after 48 hrs by CCK8 assay; format: functional, cell-based; conditions: HCT-116, 48 h
[5] = Selectivity index, ratio of IC50 for human MCF10A cells assessed as reduction in cell growth measured after 48 hrs by CCK8 assay to IC50 for human SJSA1 cells assessed as reduction in cell growth measured after 48 hrs by CCK8; format: toxicity; conditions: MCF10A cells versus SJSA1 cells, read-out: Ratio IC50
[6] = molecular target: T2, Peptide deformylase, mitochondrial (Homo sapiens); test: Inhibition of PDF in human MCF7 cells assessed as decrease in mtDNA encoded COX1 protein level measured after 48 hrs by Western blot analysis; format: cell-based
[7] = Toxicity in BALB/c nude mouse xenografted with human HCT116 cells assessed as body weight loss at 25 to 50 mg/kg, ip administered every 3 days for 21 days measured on day 7 relative to control; format: organism-based, HCT-116; conditions: in vivo
A549 [8] = test: Induction of apoptosis in human A549 cells assessed as late apoptotic cells at 40 uM measured after 24 hrs by Annexin V-FITC/propidium iodide staining based FACSClibur flow cytometry analysis (reference value: 2.32 %); format: functional
[9] = Acute toxicity in iv dosed KM mouse administered as single dose measured for 14 days; format: organism-based; conditions: in vivo
A549 [10] = test: Induction of apoptosis in human A549 cells assessed as early apoptotic cells at 40 uM measured after 24 hrs by Annexin V-FITC/propidium iodide staining based FACSClibur flow cytometry analysis (reference value: 0.35 %); format: functional
A549 [11] = test: Induction of apoptosis in human A549 cells assessed as live cells at 40 uM measured after 24 hrs by Annexin V-FITC/propidium iodide staining based FACSClibur flow cytometry analysis (reference value: 97 %); format: functional
Histone deacetylase 1 [12] = molecular target: T3, Histone deacetylase 1 (Homo sapiens, UniProt Q13547); test: Inhibition of HDAC1 (unknown origin) using Boc-Lys(Ac)-pNA as substrate preincubated for 20 mins followed by substrate addition and further incubated for 90 mins by fluorescence assay
T3 sequence (Q13547 whole entry): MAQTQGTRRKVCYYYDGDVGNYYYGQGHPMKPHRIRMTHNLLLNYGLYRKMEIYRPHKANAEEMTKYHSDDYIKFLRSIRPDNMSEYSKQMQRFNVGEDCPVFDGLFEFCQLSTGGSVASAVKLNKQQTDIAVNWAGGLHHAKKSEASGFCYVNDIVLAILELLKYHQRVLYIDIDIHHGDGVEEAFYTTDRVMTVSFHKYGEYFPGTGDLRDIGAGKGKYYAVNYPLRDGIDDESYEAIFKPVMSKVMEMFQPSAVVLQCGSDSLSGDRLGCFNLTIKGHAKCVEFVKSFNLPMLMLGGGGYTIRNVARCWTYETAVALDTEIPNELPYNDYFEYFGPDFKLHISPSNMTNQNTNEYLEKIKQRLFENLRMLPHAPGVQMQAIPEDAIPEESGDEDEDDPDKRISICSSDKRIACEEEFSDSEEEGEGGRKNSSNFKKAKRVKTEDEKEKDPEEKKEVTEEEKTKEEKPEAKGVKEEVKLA

[13] = molecular target: T4, Protein deacetylase HDAC6 (Homo sapiens) (UniProt Q9UBN7); test: Inhibition of HDAC6 (unknown origin) at 10 uM using Boc-Lys(Ac)-pNA as substrate preincubated for 20 mins followed by substrate addition and further incubated for 90 mins by fluorescence assay relative to control
T4 sequence (whole entry): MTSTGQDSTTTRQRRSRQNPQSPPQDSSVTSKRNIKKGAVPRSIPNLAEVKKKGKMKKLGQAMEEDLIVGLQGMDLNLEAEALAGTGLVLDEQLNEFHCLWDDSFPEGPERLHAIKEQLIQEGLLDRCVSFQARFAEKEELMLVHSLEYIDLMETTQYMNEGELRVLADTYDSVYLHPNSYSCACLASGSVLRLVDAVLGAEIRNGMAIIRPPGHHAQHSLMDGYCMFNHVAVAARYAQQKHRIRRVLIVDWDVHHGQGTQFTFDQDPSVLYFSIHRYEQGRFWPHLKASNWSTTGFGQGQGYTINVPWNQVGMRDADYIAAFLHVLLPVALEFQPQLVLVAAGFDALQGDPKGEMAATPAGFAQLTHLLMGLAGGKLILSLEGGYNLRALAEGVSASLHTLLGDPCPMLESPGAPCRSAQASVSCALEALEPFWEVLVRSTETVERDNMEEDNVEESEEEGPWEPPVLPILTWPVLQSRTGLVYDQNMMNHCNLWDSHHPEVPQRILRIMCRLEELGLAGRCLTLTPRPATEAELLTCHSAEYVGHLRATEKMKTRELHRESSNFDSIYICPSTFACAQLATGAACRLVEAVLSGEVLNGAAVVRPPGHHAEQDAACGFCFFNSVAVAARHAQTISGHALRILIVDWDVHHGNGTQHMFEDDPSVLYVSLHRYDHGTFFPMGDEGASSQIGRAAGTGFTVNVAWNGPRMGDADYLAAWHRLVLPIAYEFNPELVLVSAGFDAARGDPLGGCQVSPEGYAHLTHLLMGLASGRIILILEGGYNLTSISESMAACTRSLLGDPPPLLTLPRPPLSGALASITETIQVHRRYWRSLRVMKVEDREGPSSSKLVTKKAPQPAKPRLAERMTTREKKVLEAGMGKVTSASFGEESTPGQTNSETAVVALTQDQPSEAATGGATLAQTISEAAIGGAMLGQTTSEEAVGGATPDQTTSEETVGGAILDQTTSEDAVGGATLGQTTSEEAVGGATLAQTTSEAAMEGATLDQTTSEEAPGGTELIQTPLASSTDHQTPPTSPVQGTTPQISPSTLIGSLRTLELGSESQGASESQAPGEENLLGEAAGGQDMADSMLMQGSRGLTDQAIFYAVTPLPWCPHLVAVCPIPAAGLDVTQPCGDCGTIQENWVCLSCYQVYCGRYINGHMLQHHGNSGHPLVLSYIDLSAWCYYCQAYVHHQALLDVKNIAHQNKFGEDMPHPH

[14] = Drug concentration in plasma of Sprague-Dawley rat at 2 mg/kg, iv measured after 5 mins by LC-MS/MS analysis; format: ADME, organism-based
[15] = Selectivity index, ratio of IC50 for human MCF10A cells assessed as reduction in cell growth measured after 48 hrs by CCK8 assay to IC50 for human HL60 cells assessed as reduction in cell growth measured after 48 hrs by CCK8; format: toxicity; conditions: MCF10A cells versus HL60 cells, read-out: Ratio IC50
[16] = Cmax in Sprague-Dawley rat at 20 mg/kg, po measured at 0.25 hrs by LC-MS/MS analysis; format: ADME, organism-based; set-up: dose 20 mg/kg, route oral; conditions: in vivo
Histone deacetylase 1 [17] = molecular target: T3, Histone deacetylase 1; test: Inhibition of HDAC1 (unknown origin) at 10 uM using Boc-Lys(Ac)-pNA as substrate preincubated for 20 mins followed by substrate addition and further incubated for 90 mins by fluorescence assay relative to control

Compound: O=C(C[C@@H](CC1CCCC1)C(=O)N1CC2(CC2)C[C@H]1c1nc(-c2ccc(F)cc2C(F)(F)F)no1)NO
- Activity (A549 [1]): 12.6%
- Activity [2]: Non-Toxic
- IC50 [3]: 4.11 nM
- inhibition [4]: Dose-dependent effect
- IC50 (HCT-116): 1980 nM
- selectivity ratio at 48 h [5]: 9
- inhibition [6]: Dose-dependent effect
- Activity [7]: 5%
- Activity (A549 [8]): 7.07%
- LD50 at 336 h [9]: 287 to 452 mg/kg
- Activity (A549 [10]): 4.03%
- Activity (A549 [11]): 87.8%
- IC50 (Histone deacetylase 1 [12]): > 10000 nM
- inhibition [13]: 0.41%
- concentration at 5 min [14]: 136 ng/mL
- selectivity ratio at 48 h [15]: 9
- Cmax [16]: 617 ng/mL
- inhibition (Histone deacetylase 1 [17]): -0.35%
